US6929935B2, “Gluconobacter oxydans 2-ketoreductase enzyme and applications thereof” (Bristol-Myers Squibb Company, priority 2001, dated 2005)

Tested on: G. oxydans 2-ketoreductase
Test: Reduction of alkylketones with extract of E. coli expressing recombinant 2-ketoreductase, analysed by gas chromatography
Type: biochemical, Gluconobacter oxydans
Settings: NAD+/formate/formate dehydrogenase, 28° C., 16 hr; for % Conversion: 2 mg 2-ketone, 0.5 ml E. coli pBMS2000-KR extract, ketone to 2-alcohol
Protocol: Analysis of enantiomeric alcohols by gas chromatography: Samples were extracted in ethyl acetate and dried over anhydrous magnesium sulfate. Samples were then applied onto a Astec Chiraldex G-TA, gamma cyclodextrin column (20 m×0.25 mm×0.125 μm thickness; Astec, Whippany, N.J.) equipped with a guard column (Hewlett-Packard Ultra II, 5% phenyl methyl silicone, 5 m×0.32 mm×0.17 μm thickness; Agilent Technologies, Palo Alto, Calif.). The temperature of the injector was set at 150° C. and the detector of the chromatograph (Hewlett-Packard 5890) was set at 200° C. Detection was carried out with a flame ionization detector (Agilent Technologies). The separation was carried out by a gradient under the following conditions: 28° C. for 15 minutes, 5° C./min to 50° C. and hold 5 minutes. The helium flow rate was maintained at 22 cm/min. Under these conditions, the retention times for S-2-pentanol, R-2-pentanol, and 2-pentanone were 10.85, 11.67 and 17.84 minutes respectively.
The reaction contained 0.18 mg NAD+, 30 mg sodium formate, 0.3 units formate dehydrogenase (Sigma, St. Louis, Mo.), 2 mg 2-pentanone, and 0.5 ml of extract from an E. coli (BL21(DE3)) culture containing the pBMS2000-KR plasmid and expressing the ketoreductase. Alternatively, P. pastoris formate dehydrogenase (see S. Goldberg et al.: U.S. Provisional Patent Application Ser. No. 60/341,934 filed Dec. 19, 2001; U.S. Provisional Application Ser. No. 60/375,530 filed Apr. 25, 2002; and U.S. patent application Ser. No. 10/320,300; the contents of which are hereby incorporated by reference in their entirety) can be substituted for the commercial formate dehydrogenase. Cell extracts were obtained as follows: 2 g recombinant cells was suspended in 10 ml Buffer A (50 mM Tris-HCl, pH 7.5, 1 mM CaCl2, and 1 mM MgCl2). The resuspended cells were sonicated for 2 min (20 sec pulse “on” and 30 sec pulse “off”) using Model 550 Sonic Dismembrator (Misonix Inc., Farmingdale, N.Y.). The resulting mixture was centrifuged for 15 min at 8000 rpm at 4° C. The supernatant was removed and used for reduction reactions. The reactions were carried out in a culture tube at 28° C. with shaking at 200 rpm. After 16 hr, samples were quenched with 2 ml of ethyl acetate and analyzed by gas chromatography (described earlier).
The reactions contained 0.18 mg NAD+, 30 mg sodium formate, 0.3 units formate dehydrogenase (purchased from Sigma), 2 mg 2-ketones, and 0.5 ml of extract from the E. coli culture containing the pBMS2000-KR plasmid and expressing the ketoreductase (described above). The reactions were carried out in a culture tube at 28° C. on a shaker at 200 rpm. The end of 16 hr, samples were quenched with 2 ml of ethyl acetate and analyzed by gas chromatography (described earlier).

Compound	% Conversion [%]	reduction of the substrate to 2-pentanol using recombinant enzyme (2 mg substrate, 0.5 ml E. coli BL21(DE3) pBMS2000-KR extract)
CCCCCCCCC(C)=O [2-Decanone]	>98	–
CCCCCC(C)=O [2-Heptanone]	>98	–
CCCCCCC(C)=O [2-Octanone]	>98	–
CCCC(C)=O [2-pentanone]	–	complete reduction
